Measured values as given in patent US8192962B2, “Processes for detecting toxic substances” (Daikin Industries, Ltd., priority 2001, dated 2012).

Tested on: Genes belonging to other category
Experiment: DNA chip mRNA expression in yeast, genes belonging to other category (Table 9)
Format: cell-based, Saccharomyces cerevisiae S288C
Procedure, shortened: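 Chemical exposure: 2 h, log-phase S. cerevisiae S288C, YPD, 25° C., dose set to inhibit growth without death. Profiling: mRNA labeled by reverse transcription with Cy3- or Cy5-dUTP, hybridized to whole-genome array. Output: fluorescence ratio against untreated culture.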

N#Cc1c(Cl)c(Cl)c(Cl)c(C#N)c1Cl [(9), 2,4,5,6-tetrachloro-1,3-benzenedicarbonitrile]
The level of expressed mRNA in the presence of chemical substance/The level of expressed mRNA in the absence of chemical substance (yeast gene YJR091C): 2.4 | The level of expressed mRNA in the presence of chemical substance/The level of expressed mRNA in the absence of chemical substance (yeast gene YJR099W): 1.4 | The level of expressed mRNA in the presence of chemical substance/The level of expressed mRNA in the absence of chemical substance (yeast gene YJR110W): 4.9 | The level of expressed mRNA in the presence of chemical substance/The level of expressed mRNA in the absence of chemical substance (yeast gene YJR122W): 5.3 | The level of expressed mRNA in the presence of chemical substance/The level of expressed mRNA in the absence of chemical substance (yeast gene YKL008C): 0.3 | The level of expressed mRNA in the presence of chemical substance/The level of expressed mRNA in the absence of chemical substance (yeast gene YKL013C): 1.5 | The level of expressed mRNA in the presence of chemical substance/The level of expressed mRNA in the absence of chemical substance (yeast gene YKL039W): 1.3 | The level of expressed mRNA in the presence of chemical substance/The level of expressed mRNA in the absence of chemical substance (yeast gene YKL041W): 1.6 | The level of expressed mRNA in the presence of chemical substance/The level of expressed mRNA in the absence of chemical substance (yeast gene YKL079W): 2.3 | The level of expressed mRNA in the presence of chemical substance/The level of expressed mRNA in the absence of chemical substance (yeast gene YKL096W): 0.0 | The level of expressed mRNA in the presence of chemical substance/The level of expressed mRNA in the absence of chemical substance (yeast gene YKL139W): 1.6 | The level of expressed mRNA in the presence of chemical substance/The level of expressed mRNA in the absence of chemical substance (yeast gene YKL165C): 0.4 | The level of expressed mRNA in the presence of chemical substance/The level of expressed mRNA in the absence of chemical substance (yeast gene YKL193C): 1.0 | The level of expressed mRNA in the presence of chemical substance/The level of expressed mRNA in the absence of chemical substance (yeast gene YKL196C): 4.3 | The level of expressed mRNA in the presence of chemical substance/The level of expressed mRNA in the absence of chemical substance (yeast gene YKR014C): 2.4 | The level of expressed mRNA in the presence of chemical substance/The level of expressed mRNA in the absence of chemical substance (yeast gene YKR068C): 2.4 | The level of expressed mRNA in the presence of chemical substance/The level of expressed mRNA in the absence of chemical substance (yeast gene YLL054C): 2.4 | The level of expressed mRNA in the presence of chemical substance/The level of expressed mRNA in the absence of chemical substance (yeast gene YLR080W): 2.3 | The level of expressed mRNA in the presence of chemical substance/The level of expressed mRNA in the absence of chemical substance (yeast gene YLR093C): 1.5 | The level of expressed mRNA in the presence of chemical substance/The level of expressed mRNA in the absence of chemical substance (yeast gene YLR118C): 1.1 | The level of expressed mRNA in the presence of chemical substance/The level of expressed mRNA in the absence of chemical substance (yeast gene YLR120C): 1.8 | The level of expressed mRNA in the presence of chemical substance/The level of expressed mRNA in the absence of chemical substance (yeast gene YLR136C): 0.9 | The level of expressed mRNA in the presence of chemical substance/The level of expressed mRNA in the absence of chemical substance (yeast gene YLR178C): 4.3 | The level of expressed mRNA in the presence of chemical substance/The level of expressed mRNA in the absence of chemical substance (yeast gene YLR206W): 1.5 | The level of expressed mRNA in the presence of chemical substance/The level of expressed mRNA in the absence of chemical substance (yeast gene YLR248W): 2.3 | The level of expressed mRNA in the presence of chemical substance/The level of expressed mRNA in the absence of chemical substance (yeast gene YLR250W): 2.7 | The level of expressed mRNA in the presence of chemical substance/The level of expressed mRNA in the absence of chemical substance (yeast gene YLR251W): 2.1 | The level of expressed mRNA in the presence of chemical substance/The level of expressed mRNA in the absence of chemical substance (yeast gene YLR327C): 3.0 | The level of expressed mRNA in the presence of chemical substance/The level of expressed mRNA in the absence of chemical substance (yeast gene YLR356W): 2.3 | The level of expressed mRNA in the presence of chemical substance/The level of expressed mRNA in the absence of chemical substance (yeast gene YLR362W): 3.5 | The level of expressed mRNA in the presence of chemical substance/The level of expressed mRNA in the absence of chemical substance (yeast gene YLR389C): 2.4 | The level of expressed mRNA in the presence of chemical substance/The level of expressed mRNA in the absence of chemical substance (yeast gene YLR391W): 0.4 | The level of expressed mRNA in the presence of chemical substance/The level of expressed mRNA in the absence of chemical substance (yeast gene YLR429W): 0.9 | The level of expressed mRNA in the presence of chemical substance/The level of expressed mRNA in the absence of chemical substance (yeast gene YMR004W): 94.2 | The level of expressed mRNA in the presence of chemical substance/The level of expressed mRNA in the absence of chemical substance (yeast gene YMR027W): 1.1 | The level of expressed mRNA in the presence of chemical substance/The level of expressed mRNA in the absence of chemical substance (yeast gene YMR053C): 2.2 | The level of expressed mRNA in the presence of chemical substance/The level of expressed mRNA in the absence of chemical substance (yeast gene YMR077C): 1.9 | The level of expressed mRNA in the presence of chemical substance/The level of expressed mRNA in the absence of chemical substance (yeast gene YMR091C): 2.1 | The level of expressed mRNA in the presence of chemical substance/The level of expressed mRNA in the absence of chemical substance (yeast gene YMR094W): −0.1 | The level of expressed mRNA in the presence of chemical substance/The level of expressed mRNA in the absence of chemical substance (yeast gene YMR104C): 0.6 | The level of expressed mRNA in the presence of chemical substance/The level of expressed mRNA in the absence of chemical substance (yeast gene YMR110C): 2.3 | The level of expressed mRNA in the presence of chemical substance/The level of expressed mRNA in the absence of chemical substance (yeast gene YMR112C): 1.4 | The level of expressed mRNA in the presence of chemical substance/The level of expressed mRNA in the absence of chemical substance (yeast gene YMR139W): 2.8 | The level of expressed mRNA in the presence of chemical substance/The level of expressed mRNA in the absence of chemical substance (yeast gene YMR197C): 1.9 | The level of expressed mRNA in the presence of chemical substance/The level of expressed mRNA in the absence of chemical substance (yeast gene YMR219W): 2.3 | The level of expressed mRNA in the presence of chemical substance/The level of expressed mRNA in the absence of chemical substance (yeast gene YMR226C): 2.6 | The level of expressed mRNA in the presence of chemical substance/The level of expressed mRNA in the absence of chemical substance (yeast gene YMR238W): 1.3 | The level of expressed mRNA in the presence of chemical substance/The level of expressed mRNA in the absence of chemical substance (yeast gene YMR262W): 3.0 | The level of expressed mRNA in the presence of chemical substance/The level of expressed mRNA in the absence of chemical substance (yeast gene YMR275C): 2.4 | The level of expressed mRNA in the presence of chemical substance/The level of expressed mRNA in the absence of chemical substance (yeast gene YMR276W): 1.8
